Drawing on ChEMBL document CHEMBL1123315, “Total chemical synthesis and antitumor evaluation of the 9-aza analogue of N-(trifluoroacetyl)-4-demethoxydaunomycin” (1986), this text covers T/C for five molecules.

Active and inactive are the calls of the source. The rule behind the calls is not given here.

The test system of test [1] is Mus musculus. In words: Compound was tested intraperitoneally against P388 acute lymphocytic leukemia in mice at a dose 100,50,25,12.5,6.25,3.72,1.56 mg/kg. The class given is functional.
Test [2] concerns Mus musculus. The experiment in a line: Compound was tested intraperitoneally against P388 acute lymphocytic leukemia in mice; NA means inactive. The format is functional, organism-based.
Test [3] relates to Mus musculus. The experiment in a line: Compound was tested intraperitoneally against P388 acute lymphocytic leukemia in mice at a dose 0.75 mg/kg. The class given is functional. Conditions: route intraperitoneal.

Consider `CC(=O)N1Cc2c(O)c3c(c(O)c2[C@@H](OC2C[C@H](NC(=O)C(F)(F)F)[C@H](O)[C@H](C)O2)C1)C(=O)c1ccccc1C3=O` (stereo not given in full), for which, in the test with Mus musculus [1], the T/C came out at 105.
In the case of `COc1ccc(OC)c2c1CN(C(C)=O)CC2O` (stereo not given), the T/C entry in the test on Mus musculus [2] is “inactive”.
In turn, `CC(=O)[C@]1(O)Cc2c(O)c3c(c(O)c2[C@@H](OC2CC(N)C(O)C(C)O2)C1)C(=O)c1ccccc1C3=O` (stereo not given in full) displayed a T/C in the test with Mus musculus [3] of 160.
In the test on Mus musculus [1], `CC(=O)N1Cc2c(O)c3c(c(O)c2[C@H](OC2C[C@H](NC(=O)C(F)(F)F)[C@H](O)[C@H](C)O2)C1)C(=O)c1ccccc1C3=O` (stereo not given in full) displayed a T/C of 105.
With `COc1ccc(OC)c(CNCC(OC)OC)c1`, in the test with Mus musculus [2], the T/C result is “inactive”.
